Each compound was assayed against BRD4 (Homo sapiens (Human), UniProt O60885). Conditions: read-out: BRD4 IC50 (μM gmean).
For `COC(=O)N1c2ccc3c(nc(CCn4cccn4)n3CC(=O)N3CC[C@H](C(N)=O)C3)c2CC[C@@H]1C` [Example 360], the IC50 was 1 to 1000 µM. For `COC(=O)N1c2ccc3c(nc(CCn4cccn4)n3CC(=O)N(C)CC(C)(C)O)c2CC[C@@H]1C` [Example 361], the IC50 was 1 to 1000 µM. Compound `COC(=O)N1c2ccc3c(nc(CCn4cccn4)n3CC(=O)NCC3(O)CCC3)c2CC[C@@H]1C` [Example 362] has an IC50 of 1 to 1000 µM. For `COC(=O)N1c2ccc3c(nc(CCn4cccn4)n3CC(=O)NCc3cc(C)no3)c2CC[C@@H]1C` [Example 363], the IC50 was 1 to 1000 µM. `COC(=O)N1c2ccc3c(nc(CCn4cccn4)n3CC(=O)NCC3(C)COC3)c2CC[C@@H]1C` [Example 364] gave an IC50 of 1 to 1000 µM. `COC(=O)N1c2ccc3c(nc(CCn4cccn4)n3CC(=O)NC3COC3)c2CC[C@@H]1C` [Example 365] showed an IC50 of 1 to 1000 µM. `COC(=O)N1c2ccc3c(nc(CCn4cccn4)n3CC(=O)NCC#N)c2CC[C@@H]1C` [Example 366] showed an IC50 of 1 to 1000 µM. `COC(=O)N1c2ccc3c(nc(CCn4cccn4)n3CC(=O)NCc3ccno3)c2CC[C@@H]1C` [Example 367] was tested, and the IC50 was 1 to 1000 µM. `COC(=O)N1c2ccc3c(nc(CCn4cccn4)n3CC(=O)N3CC[C@@H](NC(C)=O)C3)c2CC[C@@H]1C` [Example 370] was tested, and the IC50 was 1 to 1000 µM. `COC(=O)N1c2ccc3c(nc(CCn4cccn4)n3CC(=O)NCc3ncnn3C)c2CC[C@@H]1C` [Example 371] was tested, and the IC50 was 1 to 1000 µM. Work on `COC(=O)N1c2ccc3c(nc(CCn4ccccc4=O)n3CC(=O)NCc3ncnn3C)c2CC[C@@H]1C` [Example 372] yielded an IC50 of 1 to 1000 µM. For `COC(=O)N1c2ccc3c(nc(CCn4ccccc4=O)n3CC(=O)NCc3ccncn3)c2CC[C@@H]1C` [Example 373], the IC50 was 1 to 1000 µM. Compound `COC(=O)N1c2ccc3c(nc(CCn4ccccc4=O)n3CC(=O)NCCc3ccccn3)c2CC[C@@H]1C` [Example 374] has an IC50 of 1 to 1000 µM. Work on `COC(=O)N1c2ccc3c(nc(CCn4ccccc4=O)n3CC(=O)NCc3cccnc3)c2CC[C@@H]1C` [Example 375] yielded an IC50 of 1 to 1000 µM. With `COC(=O)N1c2ccc3c(nc(CCn4ccccc4=O)n3CC(=O)NC[C@H]3CCCO3)c2CC[C@@H]1C` [Example 376] the IC50 was 1 to 1000 µM. With `COC(=O)N1c2ccc3c(nc(CCn4ccccc4=O)n3CC(=O)N[C@H]3CC[C@H](CO)CC3)c2CC[C@@H]1C` [Example 377] the IC50 was 1 to 1000 µM. With `COC(=O)N1c2ccc3c(nc(CCn4ccccc4=O)n3CC(=O)N[C@H](C)CO)c2CC[C@@H]1C` [Example 378] the IC50 was 1 to 1000 µM. `COC(=O)N1c2ccc3c(nc(CCn4ccccc4=O)n3CC(=O)N(C)CCO)c2CC[C@@H]1C` [Example 379] was tested, and the IC50 was 1 to 1000 µM. Compound `COC(=O)N1c2ccc3c(nc(CCn4ccccc4=O)n3CC(=O)N(C)CC(=O)N(C)C)c2CC[C@@H]1C` [Example 380] has an IC50 of 1 to 1000 µM. `COC(=O)N1c2ccc3c(nc(CCn4ccccc4=O)n3CC(=O)N3CCC(O)CC3)c2CC[C@@H]1C` [Example 381] showed an IC50 of 1 to 1000 µM. `COC(=O)N1c2ccc3c(nc(CCn4ccccc4=O)n3CC(=O)NCC(=O)N(C)C)c2CC[C@@H]1C` [Example 382] gave an IC50 of 1 to 1000 µM. `COC(=O)N1c2ccc3c(nc(CCn4ccccc4=O)n3CC(=O)NCC(=O)N3CCCC3)c2CC[C@@H]1C` [Example 383] gave an IC50 of 1 to 1000 µM. Work on `COC(=O)N1c2ccc3c(nc(CCn4ccccc4=O)n3CC(=O)N(C)C3CCOCC3)c2CC[C@@H]1C` [Example 384] yielded an IC50 of 1 to 1000 µM. `COC(=O)N1c2ccc3c(nc(CCn4ccccc4=O)n3CC(=O)NCC3CCOCC3)c2CC[C@@H]1C` [Example 385] gave an IC50 of 1 to 1000 µM. Compound `COC(=O)N1c2ccc3c(nc(CCn4ccccc4=O)n3CC(=O)NC3CCOCC3)c2CC[C@@H]1C` [Example 386] has an IC50 of 1 to 1000 µM. `COC(=O)N1c2ccc3c(nc(CCn4ccccc4=O)n3CC(=O)N(C)[C@H]3CCOC3)c2CC[C@@H]1C` [Example 387] gave an IC50 of 1 to 1000 µM. `COC(=O)N1c2ccc3c(nc(CCn4ccccc4=O)n3CC(=O)N3CC[C@H](C(N)=O)C3)c2CC[C@@H]1C` [Example 388] was tested, and the IC50 was 1 to 1000 µM. In the case of `COC(=O)N1c2ccc3c(nc(CCn4ccccc4=O)n3CC(=O)N(C)CC(C)(C)O)c2CC[C@@H]1C` [Example 389], the IC50 is reported as 1 to 1000 µM. `COC(=O)N1c2ccc3c(nc(CCn4ccccc4=O)n3CC(=O)NCC3(O)CCC3)c2CC[C@@H]1C` [Example 390] gave an IC50 of 1 to 1000 µM. With `COC(=O)N1c2ccc3c(nc(CCn4ccccc4=O)n3CC(=O)NCc3cc(C)no3)c2CC[C@@H]1C` [Example 391] the IC50 was 1 to 1000 µM. Work on `COC(=O)N1c2ccc3c(nc(CCn4ccccc4=O)n3CC(=O)NCC3(C)COC3)c2CC[C@@H]1C` [Example 392] yielded an IC50 of 1 to 1000 µM. Compound `COC(=O)N1c2ccc3c(nc(CCn4ccccc4=O)n3CC(=O)NC3COC3)c2CC[C@@H]1C` [Example 393] has an IC50 of 1 to 1000 µM. `COC(=O)N1c2ccc3c(nc(CCn4ccccc4=O)n3CC(=O)NCC#N)c2CC[C@@H]1C` [Example 394] showed an IC50 of 1 to 1000 µM. With `COC(=O)N1c2ccc3c(nc(CCn4ccccc4=O)n3CC(=O)NCCN3CCNC3=O)c2CC[C@@H]1C` [Example 395] the IC50 was 1 to 1000 µM. `COC(=O)N1c2ccc3c(nc(CCn4ccccc4=O)n3CC(=O)N3CCC(C#N)CC3)c2CC[C@@H]1C` [Example 396] gave an IC50 of 1 to 1000 µM. `COC(=O)N1c2ccc3c(nc(CCn4ccccc4=O)n3CC(=O)N3CC[C@@H](NC(C)=O)C3)c2CC[C@@H]1C` [Example 397] was tested, and the IC50 was 1 to 1000 µM. With `COC(=O)N1c2ccc3c(nc(CCn4ccccc4=O)n3CC(=O)N3CC[C@H](NC(C)=O)C3)c2CC[C@@H]1C` [Example 398] the IC50 was 1 to 1000 µM. For `COC(=O)N1c2ccc3c(nc(CCn4ccccc4=O)n3CC(=O)N3CC[C@H](O)C3)c2CC[C@@H]1C` [Example 399], the IC50 was 1 to 1000 µM. `COC(=O)N1c2ccc3c(nc(CCn4ccccc4=O)n3CC(=O)N3CCNC(=O)C3)c2CC[C@@H]1C` [Example 400] was tested, and the IC50 was 1 to 1000 µM. `COC(=O)N1c2ccc3c(nc(CCn4ccccc4=O)n3CC(=O)N3CCC(F)(F)C3)c2CC[C@@H]1C` [Example 401] gave an IC50 of 1 to 1000 µM. For `COC(=O)N1c2ccc3c(nc(CCn4ccccc4=O)n3CC(=O)N3CCn4ccnc4C3)c2CC[C@@H]1C` [Example 402], the IC50 was 1 to 1000 µM. Compound `COC(=O)N1c2ccc3c(nc(CCn4ccccc4=O)n3CC(=O)Nc3ccn[nH]3)c2CC[C@@H]1C` [Example 403] has an IC50 of 1 to 1000 µM. `COC(=O)N1c2ccc3c(nc(CC(C(=O)O)c4ccccc4)n3C3CCCC(OC)C3)c2CC[C@@H]1C` (stereo partly shown) [Example 404] showed an IC50 of 1 to 1000 µM. `COC(=O)N1c2ccc3c(nc(C(C)Cc4ccc(F)c(F)c4)n3C3CCCC(C(=O)O)C3)c2CC[C@@H]1C` (stereo partly shown) [Example 405] was tested, and the IC50 was 1 to 1000 µM. Compound `COC(=O)N1c2ccc3c(nc(CC(C(=O)O)c4ccc(C)c(F)c4)n3C3CCCOC3)c2CC[C@@H]1C` (stereo partly shown) [Example 407] has an IC50 of 1 to 1000 µM. Work on `COC(=O)N1c2ccc3c(nc(C(O)c4ccc(F)c(F)c4)n3C3CCCC(C(=O)O)C3)c2CC[C@@H]1C` (stereo partly shown) [Example 432] yielded an IC50 of 1 to 1000 µM. In the case of `COC(=O)N1c2ccc3c(nc(C(C)Cn4cc(Cl)cn4)n3C3CCCC(C(=O)O)C3)c2CC[C@@H]1C` (stereo partly shown) [Example 443], the IC50 is reported as 1 to 1000 µM. Work on `COC(=O)N1c2ccc3c(nc(CC(C(=O)O)c4ccc(C)c(F)c4)n3C3CCCOC3)c2CC[C@@H]1C` (stereo partly shown) [Example 446] yielded an IC50 of 1 to 1000 µM. Work on `COC(=O)N1c2ccc3c(nc(CC(C(=O)O)c4ccc(F)c(F)c4)n3C3CCCC3)c2CC[C@@H]1C` (stereo partly shown) [Example 447] yielded an IC50 of 1 to 1000 µM. With `COC(=O)N1c2ccc3c(nc(C(O)c4cc(F)ccc4F)n3C3CCCC(C(=O)O)C3)c2CC[C@@H]1C` (stereo partly shown) [Example 449] the IC50 was 1 to 1000 µM. For `COC(=O)N1c2ccc3c(nc(CC(C(=O)O)c4ccccc4)n3C3CCCC(OC)C3)c2CC[C@@H]1C` (stereo partly shown) [Example 455], the IC50 was 1 to 1000 µM. `COC(=O)N1c2ccc3c(nc(C(C)Cn4ccc(Cl)n4)n3C3CCCC(C(=O)O)C3)c2CC[C@@H]1C` (stereo partly shown) [Example 459] gave an IC50 of 1 to 1000 µM. Compound `COC(=O)N1c2ccc3c(nc(C(c4ccc(OC)c(F)c4)C(C)C)n3C3CCC(C(=O)O)CC3)c2CC[C@@H]1C` (stereo partly shown) [Example 466] has an IC50 of 1 to 1000 µM. `COC(=O)N1c2ccc3c(nc(CC(C(=O)O)c4ccc5ccccc5c4)n3C3CCCOC3)c2CC[C@@H]1C` (stereo partly shown) [Example 468] gave an IC50 of 1 to 1000 µM. With `COC(=O)N1c2ccc3c(nc(Cc4ccc(C)c(F)c4)n3[C@@H]3CCC[C@@H](C(=O)O)C3)c2CC[C@@H]1C` [Example 471] the IC50 was 1 to 1000 µM. `COC(=O)N1c2ccc3c(nc(CC(C(=O)O)c4ccccc4)n3C3CCCC(OC)C3)c2CC[C@@H]1C` (stereo partly shown) [Example 475] was tested, and the IC50 was 1 to 1000 µM. Compound `COC(=O)N1c2ccc3c(nc(Cc4ccc(OC)c(F)c4)n3[C@@H]3CCC[C@@H](C(=O)O)C3)c2CC[C@@H]1C` [Example 481] has an IC50 of 1 to 1000 µM. `COC(=O)N1c2ccc3c(nc(C(C)Cn4ccc(C)n4)n3C3CCCC(C(=O)O)C3)c2CC[C@@H]1C` (stereo partly shown) [Example 485] showed an IC50 of 1 to 1000 µM. `COC(=O)N1c2ccc3c(nc(CC(C(=O)O)c4cccc(F)c4)n3C3CCCOC3)c2CC[C@@H]1C` (stereo partly shown) [Example 490] showed an IC50 of 1 to 1000 µM. `COC(=O)N1c2ccc3c(nc(C(C)Cn4cc(C(F)F)cn4)n3C3CCCC(C(=O)O)C3)c2CC[C@@H]1C` (stereo partly shown) [Example 492] gave an IC50 of 1 to 1000 µM. Work on `COC(=O)N1c2ccc3c(nc(CC(C(=O)O)c4ccc(Cl)cc4)n3C3CCCOC3)c2CC[C@@H]1C` (stereo partly shown) [Example 495] yielded an IC50 of 1 to 1000 µM. Compound `COC(=O)N1c2ccc3c(nc(CC(C(=O)O)c4ccc(C)cc4)n3C3CCCOC3)c2CC[C@@H]1C` (stereo partly shown) [Example 497] has an IC50 of 1 to 1000 µM. Compound `COC(=O)N1c2ccc3c(nc(Cc4ccc(F)c(F)c4)n3[C@@H]3CCC[C@@H](C(=O)O)C3)c2CC[C@@H]1C` [Example 502] has an IC50 of 1 to 1000 µM. `COC(=O)N1c2ccc3c(nc(C(C)Cn4cc(C(F)F)cn4)n3C3CCC(C(=O)O)CC3)c2CC[C@@H]1C` (stereo partly shown) [Example 504] showed an IC50 of 1 to 1000 µM. Work on `COC(=O)N1c2ccc3c(nc(C(CO)c4ccccc4)n3C3CCCC(C(=O)O)C3)c2CC[C@@H]1C` (stereo partly shown) [Example 505] yielded an IC50 of 1 to 1000 µM. Work on `COC(=O)N1c2ccc3c(nc(Cc4ccc(OC)c(Cl)c4)n3[C@H]3CC[C@H](C(=O)O)CC3)c2CC[C@@H]1C` [Example 508] yielded an IC50 of 1 to 1000 µM. `COC(=O)N1c2ccc3c(nc(CCc4ccc(F)c(F)c4)n3[C@@H]3CCC[C@@H](C(=O)O)C3)c2CC[C@@H]1C` [Example 509] showed an IC50 of 1 to 1000 µM. `COC(=O)N1c2ccc3c(nc(CC(C(=O)O)c4ccc(F)cc4)n3C3CCCOC3)c2CC[C@@H]1C` (stereo partly shown) [Example 510] showed an IC50 of 1 to 1000 µM. With `COC(=O)N1c2ccc3c(nc(Cc4cc(Cl)cc(OC)c4)n3[C@@H]3CCC[C@@H](C(=O)O)C3)c2CC[C@@H]1C` [Example 512] the IC50 was 1 to 1000 µM. `COC(=O)N1c2ccc3c(nc(CCC4CCCC4)n3C3CCCC(C(=O)O)C3)c2CC[C@@H]1C` (stereo partly shown) [Example 514] gave an IC50 of 1 to 1000 µM.
